Reference: US20230234941A1, “Salts of Compound and Pharmaceutical Compositions Containing the Same” (Shenzhen Forward Pharmaceuticals Co., Limited., priority 2020, published 2023)
Structures can show the parent of a compound that is named as a salt. Where two headings read alike, the source gives them in different places.

Legend:
Format in all cases: physicochemical
[1] = Solid storage stability test; conditions: for Original morphology / Original purity: original solid before storage; for chemical and physical stability after storage (summary): solid/25° C./60% RH/open/1 week and/or solid/60° C./closed container/1 week
Method: Each amorphous salt solid was weighed (two 2 mg samples were weighed for purity testing after solid storage stability study, and one 10 mg sample was weighed for XRPD testing after solid storage stability study) and placed in a glass vial. In a 25° C./60% RH solid storage stability test, the amorphous salt solid was placed in a 25° C./60% RH constant temperature and humidity chamber, and placed in the dark for 1 week (i.e. “solid/25° C./60% RH/open/1 week”), and in a 60° C. solid storage stability test, the amorphous salt solid was sealed in an oven at 60° C. and heated for 1 week in the dark (i.e. “solid/60° C./closed container/l week”). Then the sample was taken out for purity testing, crystal form detection and appearance observation, respectively.

[2] = Solid solubility test (2 h and 24 h); conditions: for solubility at 2 h / solubility at 24 h: thermodynamic from solid; for XRPD measured at 2 h: state of sample / solid fraction; for solubility at 24 h: read-out: Solubility measured at 24 h; for XRPD measured at 24 h: 24 h test, state of sample
Method: samples were weighed for each amorphous salt solid (equivalent to 20 mg of free base), and 10 mL of the following solvents were respectively added: 0.1N HCl solution (pH 1.0), 50 mM phosphate buffer (pH 4.5), FeSSIF-V1 (pH 5.0), FaSSIF-V1 (pH 6.5) and SGF (pH 2.0), […] The suspension was then centrifuged at 37° C., the supernatant was measured for solubility by HPLC, and the solid fraction was measured for XRPD. The target solubility was at least 2 mg (based on free base)/mL.

[3] = Chemical and physical stability of the salts at the end of the preparation
Text: It is crucial for drug development whether the salts obtained as above have chemical and physical stability at the end of the preparation. The chemical and physical stability of the salts at the end of the preparation includes: […]

[4] = Test BS1: solid/25° C./60% RH/open/1 week
[5] = solid/60° C./closed container/1 week (Test BS1)
[6] = FaSSIF-V1 (pH 6.5) (Test ES4, partly printed ES1)
[7] = FaSSIF-V1 (pH 6.5) (Test ES4, partly printed ES1), 37° C., based on free base
[8] = Test ES1: 0.1N HCl solution (pH 1.0)
[9] = Test ES1: 0.1N HCl solution (pH 1.0), 37° C., based on free base
[10] = Test ES2: 50 mM phosphate buffer (pH 4.5)
[11] = Test ES5: SGF (pH 2.0), 37° C., based on free base
[12] = listed as 1 eq. hydrochloride salt
[13] = listed as amorphous 1 eq. hydrochloride salt
[14] = Test ES2: 50 mM phosphate buffer (pH 4.5), 37° C., based on free base
[15] = Test ES3: FeSSIF-V1 (pH 5.0), 37° C., based on free base
[16] = listed as 2 eq. hydrochloride salt
[17] = listed as amorphous 2 eq. hydrochloride salt

C=CC(=O)Nc1cc(Nc2ncnc(-c3cn(C)c4ccccc34)n2)c(OC)cc1N(C)CCN(C)C [Example 1]
Purity [1, 4]: 99.6% | Original morphology [1]: amorphous | Original purity [1]: 99.9% | physical and chemical stability under storage (in words) ([1]; solid/25° C./60% RH/open/1 week, listed as amorphous free base): good physical and chemical stability | Purity [1, 5]: 99.9% | physical and chemical stability under storage (in words) ([1]; solid/60° C./closed container/1 week, listed as amorphous free base): transformed from amorphous to a moderate crystallinity | solubility at 2 h ([2]; 50 mM phosphate buffer, 37 °C, pH 4.5, aqueous buffer, Test ES2: 50 mM phosphate buffer (pH 4.5), 37° C., based on free base, read-out: Solubility measured at 2 h): > 2000 µg/mL | pH measured at 2 h [2, 6]: (6.8) | Solubility measured at 2 h [2, 7]: >2000 µg/mL | XRPD measured at 2 h [2, 6]: clear solution | solubility at 24 h ([2]; FaSSIF-V1, 37 °C, pH 6.5, fassif, Test ES4: FaSSIF-V1 (pH 6.5)): > 2000 µg/mL | solubility at 2 h ([2]; FeSSIF-V1, 37 °C, pH 5, fessif, Test ES3: FeSSIF-V1 (pH 5.0), 37° C., based on free base, read-out: Solubility measured at 2 h): > 2000 µg/mL | solubility at 24 h ([2]; FeSSIF-V1, 37 °C, pH 5, fessif, Test ES3: FeSSIF-V1 (pH 5.0)): > 2000 µg/mL | pH measured at 2 h [2, 8]: (0.8) | Solubility measured at 2 h [2, 9]: >2000 µg/mL | XRPD measured at 2 h [2, 8]: clear solution | pH measured at 2 h [2, 10]: (4.6) | XRPD measured at 2 h [2, 10]: clear solution | pH measured at 2 h ([2]; Test ES3: FeSSIF-V1 (pH 5.0)): (4.9) | Solubility measured at 24 h ([2]; Test ES3: FeSSIF-V1 (pH 5.0)): >2000 µg/mL | pH measured at 24 h ([2]; Test ES3: FeSSIF-V1 (pH 5.0)): (5.0) | XRPD measured at 24 h ([2]; Test ES3: FeSSIF-V1 (pH 5.0)): clear solution | XRPD measured at 2 h ([2]; Test ES3: FeSSIF-V1 (pH 5.0)): clear solution | Solubility measured at 24 h ([2]; Test ES4: FaSSIF-V1 (pH 6.5)): >2000 µg/mL | pH measured at 24 h ([2]; Test ES4: FaSSIF-V1 (pH 6.5)): (6.8) | XRPD measured at 24 h ([2]; Test ES4: FaSSIF-V1 (pH 6.5)): clear solution | pH measured at 2 h ([2]; Test ES5: SGF (pH 2.0)): (2.4) | Solubility measured at 2 h [2, 11]: >2000 µg/mL | XRPD measured at 2 h ([2]; Test ES5: SGF (pH 2.0)): clear solution | chemical and physical stability at the end of the preparation ([3]; listed as amorphous free base): chemically and physically stable

C=CC(=O)Nc1cc(Nc2ncnc(-c3cn(C)c4ccccc34)n2)c(OC)cc1N(C)CCN(C)C [Example 2]
Purity [1, 4]: 99.9% | Original morphology [1]: amorphous | Original purity [1]: 99.9% | chemical and physical stability after storage (summary) [1, 12]: chemically unstable | chemical and physical stability after storage (summary) [1, 13]: chemically unstable | physical and chemical stability under storage (in words) ([1]; solid/25° C./60% RH/open/1 week, listed as amorphous 1 eq. hydrochloride salt): good physical and chemical stability | decrease in purity ([1]; solid/60° C./closed container/1 week): about 2% | Purity [1, 5]: 98.2% | solubility at 2 h ([2]; 37 °C, 2 h solid solubility test, all five solvents, read-out: solubility in all solvents tested): > 2000 µg/mL | pH measured at 2 h [2, 6]: (6.5) | Solubility measured at 2 h [2, 7]: >2000 µg/mL | XRPD measured at 2 h [2, 6]: clear solution | pH measured at 2 h [2, 8]: (0.7) | Solubility measured at 2 h [2, 9]: >2000 µg/mL | XRPD measured at 2 h [2, 8]: clear solution | pH measured at 2 h [2, 10]: (4.5) | Solubility measured at 2 h [2, 14]: >2000 µg/mL | XRPD measured at 2 h [2, 10]: clear solution | pH measured at 2 h ([2]; Test ES3: FeSSIF-V1 (pH 5.0)): (4.8) | Solubility measured at 2 h [2, 15]: >2000 µg/mL | XRPD measured at 2 h ([2]; Test ES3: FeSSIF-V1 (pH 5.0)): clear solution | pH measured at 2 h ([2]; Test ES5: SGF (pH 2.0)): (2.0) | Solubility measured at 2 h [2, 11]: >2000 µg/mL | XRPD measured at 2 h ([2]; Test ES5: SGF (pH 2.0)): clear solution | chemical and physical stability at the end of the preparation [3, 12]: chemically and physically stable | chemical and physical stability at the end of the preparation [3, 13]: chemically and physically stable

C=CC(=O)Nc1cc(Nc2ncnc(-c3cn(C)c4ccccc34)n2)c(OC)cc1N(C)CCN(C)C [Example 3]
Purity [1, 4]: 99.6% | Original morphology [1]: amorphous | Original purity [1]: 99.9% | chemical and physical stability after storage (summary) [1, 16]: physically unstable | chemical and physical stability after storage (summary) [1, 17]: physically unstable | physical and chemical stability under storage (in words) ([1]; solid/25° C./60% RH/open/1 week, listed as amorphous 2 eq. hydrochloride salt): slight color change and showed a certain hygroscopicity (partial agglomeration) | Purity [1, 5]: 99.6% | physical and chemical stability under storage (in words) ([1]; solid/60° C./closed container/1 week, listed as amorphous 2 eq. hydrochloride salt): good physical and chemical stability | pH measured at 2 h [2, 6]: (6.1) | Solubility measured at 2 h [2, 7]: >2000 µg/mL | XRPD measured at 2 h [2, 6]: clear solution | pH measured at 2 h [2, 8]: (0.71 | Solubility measured at 2 h [2, 9]: >2000 µg/mL | XRPD measured at 2 h [2, 8]: clear solution | pH measured at 2 h [2, 10]: (4.2) | Solubility measured at 2 h [2, 14]: >2000 µg/mL | XRPD measured at 2 h [2, 10]: clear solution | pH measured at 2 h ([2]; Test ES3: FeSSIF-V1 (pH 5.0)): (4.8) | Solubility measured at 2 h [2, 15]: >2000 µg/mL | XRPD measured at 2 h ([2]; Test ES3: FeSSIF-V1 (pH 5.0)): clear solution | pH measured at 2 h ([2]; Test ES5: SGF (pH 2.0)): (1.8) | Solubility measured at 2 h [2, 11]: >2000 µg/mL | XRPD measured at 2 h ([2]; Test ES5: SGF (pH 2.0)): clear solution | chemical and physical stability at the end of the preparation [3, 16]: chemically and physically stable | chemical and physical stability at the end of the preparation [3, 17]: chemically and physically stable

C=CC(=O)Nc1cc(Nc2ncnc(-c3cn(C)c4ccccc34)n2)c(OC)cc1N(C)CCN(C)C [Example 11]
chemical and physical stability at the end of the preparation ([3]; listed as amorphous nitrate salt): at least chemically unstable | chemical and physical stability at the end of the preparation ([3]; listed as nitrate salt): chemically unstable

C=CC(=O)Nc1cc(Nc2ncnc(-c3cn(C)c4ccccc34)n2)c(OC)cc1N(C)CCN(C)C [Example 12]
chemical and physical stability at the end of the preparation ([3]; listed as amorphous sulfate salt): chemically stable at the end of the preparation, but was physically unstable due to a certain hygroscopicity | chemical and physical stability at the end of the preparation ([3]; listed as sulfate salt): physically unstable

C=CC(=O)Nc1cc(Nc2ncnc(-c3cn(C)c4ccccc34)n2)c(OC)cc1N(C)CCN(C)C [Example 13]
chemical and physical stability at the end of the preparation ([3]; listed as 2 eq. p-tosylate salt): physically unstable | chemical and physical stability at the end of the preparation ([3]; listed as amorphous 2 eq. p-tosylate salt): chemically stable and reasonable in terms of the base:acid stoichiometric ratio at the end of the preparation, but was physically unstable due to caking and fusion to a glassy state upon short exposure to environmental conditions

C=CC(=O)Nc1cc(Nc2ncnc(-c3cn(C)c4ccccc34)n2)c(OC)cc1N(C)CCN(C)C [Example 14]
chemical and physical stability at the end of the preparation ([3]; listed as Y11526-25-FD13-1,4-dioxane): chemically and physically stable

C=CC(=O)Nc1cc(Nc2ncnc(-c3cn(C)c4ccccc34)n2)c(OC)cc1N(C)CCN(C)C [Example 15]
chemical and physical stability at the end of the preparation ([3]; listed as Y11526-25-FD12-1,4-dioxane): chemically and physically stable

C=CC(=O)Nc1cc(Nc2ncnc(-c3cn(C)c4ccccc34)n2)c(OC)cc1N(C)CCN(C)C [Example 16]
chemical and physical stability at the end of the preparation ([3]; listed as L-malate salt): chemically unstable | chemical and physical stability at the end of the preparation ([3]; listed as amorphous L-malate salt): at least chemically unstable

C=CC(=O)Nc1cc(Nc2ncnc(-c3cn(C)c4ccccc34)n2)c(OC)cc1N(C)CCN(C)C [Example 17]
chemical and physical stability at the end of the preparation ([3]; listed as 1 eq. citrate salt): chemically unstable | chemical and physical stability at the end of the preparation ([3]; listed as amorphous 1 eq. citrate salt): at least chemically unstable

C=CC(=O)Nc1cc(Nc2ncnc(-c3cn(C)c4ccccc34)n2)c(OC)cc1N(C)CCN(C)C [Example 18]
chemical and physical stability at the end of the preparation ([3]; listed as 1 eq. L-tartrate): chemically unstable | chemical and physical stability at the end of the preparation ([3]; listed as amorphous 1 eq. L-tartrate): chemically unstable | chemical and physical stability at the end of the preparation ([3]; listed as amorphous 1 eq. L-tartrate salt): at least chemically unstable

C=CC(=O)Nc1cc(Nc2ncnc(-c3cn(C)c4ccccc34)n2)c(OC)cc1N(C)CCN(C)C [sulfosalicylate salt]
chemical and physical stability at the end of the preparation [3]: chemically and physically stable | chemical and physical stability at the end of the preparation ([3]; listed as amorphous sulfosalicylate salt): chemically and physically stable
